Assay [1] deals with liver mass or hepatic lipid accumulation. As to conditions: 25 mg icariin/kg diet; corresponding to 4 mg/kg body weight/day; cited from earlier work.
The test system of assay [2] is liver triglycerides. As to conditions: Example 3; HFD mice, six weeks; metformin alone 1.5 g/kg diet; combination: leucine + metformin 0.5 g/kg.
From the text: (§1) Chronic high fat diet was used in C57Bl/6 mice as an experimental model of hepatic steatosis. Male C57/BL6 mice were either maintained on standard low-fat diet (control; LFD; 10% energy from fat) or placed on a high fat (HFD; 60% energy from fat, Research Diets #D12492, Research Diets, Inc, New Brunswick, N.J.) at six weeks of age to induce obesity and fatty infiltration of the liver. […] Animals were then randomized to treatments for an additional six weeks, with 10 animals per group, as specified in the following examples.
(§2) In this study, the effects of metformin alone (therapeutic dose) vs. combination therapy with sub-therapeutic amounts of metformin and leucine on liver weight and hepatic lipid accumulation were assessed. Following induction of hepatic steatosis as described in Example 1, animals were treated for six weeks according to the following treatment groups as depicted in Table 22:
In assay [3] the test system is HFD-induced hepatic steatosis. Kind of assay: Prophylactic treatment concurrent with high fat diet feeding (Examples 6-8). Type of assay: in vivo, C57Bl/6 mice. As to conditions: treatments and HFD initiated on the same day, six weeks, doses as Tables 25-27. As for the experimental part: C57Bl/6 mice are assigned to the following experimental groups as depicted in Table 25: Drug treatments and high fat diet feeding (as described in Example 1) are initiated on the same day and are carried out for six weeks. The effects of the treatments and diet on liver mass and hepatic lipid accumulation are assessed as described in the preceding examples. […] C57Bl/6 mice are assigned to the following experimental groups as depicted in Table 26: Drug treatments and high fat diet feeding (as described in Example 1) are initiated on the same day and are carried out for six weeks. The effects of the treatments and diet on liver mass and hepatic lipid accumulation are assessed as described in the preceding examples. […] In this study, the prophylactic effects of sub-therapeutic leucine alone, and co-administration of leucine and the PDE5-specific inhibitor icariin on liver mass and hepatic steatosis are assessed. C57Bl/6 mice are assigned to the following experimental groups as depicted in Table 27: Drug treatments and high fat diet feeding (as described in Example 1) are initiated on the same day and are carried out for six weeks. The effects of the treatments and diet on liver mass and hepatic lipid accumulation are assessed as described in the preceding examples.

In assay [4] the test system is hepatic steatosis (lipid vesicles in liver cells). Kind of assay: Histological analysis of hepatic lipid accumulation after high fat diet. To be noted: Example 3; HFD mice, six weeks; therapeutic metformin; combination: leucine + metformin 0.5 g/kg.
From the text: as §1
In this study, the effects of metformin alone (therapeutic dose), subtherapeutic metformin alone, subtherapeutic leucine, and various combinations of leucine, metformin, and resveratrol on liver weight and hepatic lipid accumulation were assessed. The 1.5 g/kg diet of metformin corresponds to a therapeutically effective dose of metformin in humans. […] Likewise, the 24 g/kg dose of leucine represents a sub-therapeutic dose that was predicted to exert no significant independent effects on liver mass or hepatic steatosis. […]
In this study, the effects of metformin alone (therapeutic dose) vs. combination therapy with sub-therapeutic amounts of metformin and leucine on liver weight and hepatic lipid accumulation were assessed. […]
Assay [5] relates to high fat diet-induced hepatic steatosis. Description: Liver weight after treatment of high fat diet-induced hepatic steatosis. Type of assay: in vivo, C57Bl/6 mice. To be noted: HFD mice, six weeks, metformin 1.5 g/kg diet.
From the text: as §1
In this study, the effects of metformin alone (therapeutic dose), subtherapeutic metformin alone, subtherapeutic leucine, and various combinations of leucine, metformin, and resveratrol on liver weight and hepatic lipid accumulation were assessed. The 1.5 g/kg diet of metformin corresponds to a therapeutically effective dose of metformin in humans. […] Likewise, the 24 g/kg dose of leucine represents a sub-therapeutic dose that was predicted to exert no significant independent effects on liver mass or hepatic steatosis. Following induction of hepatic steatosis as described in Example 1, animals were treated according to the following treatment groups as depicted in Table 21:
as §2

`COc1ccc(-c2oc3c(CC=C(C)C)c(O[C@@H]4O[C@H](CO)[C@@H](O)[C@H](O)[C@H]4O)cc(O)c3c(=O)c2O[C@@H]2O[C@@H](C)[C@H](O)[C@@H](O)[C@H]2O)cc1` [icariin]: in assay [1], the “Effect on hepatic lipid accumulation” value is listed as “no effect” and the “Effect on liver mass” value is reported as “no effect”.

In the case of metformin, the “Effect on liver triglycerides” value in assay [2] is listed as “partially reversed the effect of high fat diet on liver triglycerides”. Further, the “Effect on HFD-induced hepatic lipid accumulation” value in assay [3] is recorded as “attenuates”. For the same compound, the “Effect on HFD-induced increase in liver mass” value in assay [3] is recorded as “attenuates”. In assay [4], the “Effect on hepatic steatosis (histological analysis)” value was “partially reversed hepatic steatosis”. Also, the “Effect on liver weight” value in assay [5] (Example 2, leucine 24 g/kg diet, resveratrol 12.5 mg/kg diet) was “partially reverse the effect of high fat diet on liver weight”; in assay [5] (Example 3) it was “reversed the effect of high fat diet on liver weight back to control levels”; in assay [5] (Example 4), “reversed the effect of high fat diet on liver weight back to control levels”.
